One molecule from patent publication US20130150317A1, “COMPOUNDS FOR THE TREATMENT OF RENAL CELL CARCINOMA” (Myrovlytis Technology Ventures Limited, priority 2010, published 2013) can be followed below.

Data set [1] has as its system UOK257-FLCN^− cells. As to the kind of experiment: Clonogenic cell survival assay in UOK257-FLCN^− cells.
Procedure: The final concentration of DMSO in the medium was 1%. Four dishes with two seeding densities for each drug concentration were used and at least three experiments were carried out under each set of conditions. […] The cells were incubated for an additional 10-16 days until visible colonies appeared, which were fixed with Carnoy's fixative (methanol:acetic acid 3:1, v:v), and visualized by staining cells in sulphorhodamine B (0.4%). Colonies with over 30 cells were counted. […] Cell survival following drug exposure was expressed as % control cloning efficiency or survival.
The test system of data set [2] is UOK257-FLCN^− and UOK257-FLCN^+ cells. As to the kind of experiment: CellTiter-Blue cell viability assay in UOK-257 cells with/without FLCN expression. The data set is classed as cell-based, human. The following applies: 200 nM, 48 hrs. Here is the method:
(§1) The ability to induce caspase 3/7 activation after exposure to compounds was measured by Caspase-Glo 3/7 Assay (Promega, Southampton, United Kingdom) according to manufacturer's instruction. The cells were seeded and dosed as described in growth inhibition assay. At the end of incubation, 70 μl of medium was removed and 30 μl of assay reagent was added to the remaining medium. Additional one hour incubation with shaking was carried out at room temperature. The resultant luminescent light was measured in a Victor X3 Multilabel Plate Reader (PerkinElmer, Beaconsfield, United Kingdom). Cell viability after compound exposure was determined by CellTiter-Blue Cell Viability Assay (Promega, Southampton, the United Kingdom) according to manufacturer's instruction. At the end of drug treatment, 20 μl of reagent was added to the medium in 96 wells and the cells were incubated for additional 4 hours. The cell viability was measured by fluorescence with a 570 nm excitation and 590 nm emission set in a Victor X3 Multilabel Plate Reader (PerkinElmer, Beaconsfield, United Kingdom).
These were calculated and used as indicators for the sensitivity to mutant FLCN cells. Cells were exposed continuously to the indicated concentrations of drugs for 48 hours. Values are the mean±SD from at least three experiments.
For orientation: The colour change of resazurin is a common sign of viable cells or microbes.

Data set [3] deals with caspase3/7 activity in UOK257-FLCN^− and UOK257-FLCN^+ cells. The experiment in a line: Caspase-Glo 3/7 assay in UOK-257 cells with/without FLCN expression. The data set is classed as cell-based, human. On the procedure:
as §1
After 48 hrs incubation, with three concentration ranges for each drug, the capase3/7 activity was detected by amount of luminescence for each cell line. The ratio of caspase3/7 activity from UOK257-FLCN^− and UOK257-FLCN^+ were calculated and used as indicators for the ability of the individual compound to induce caspase3/7 activity to FLCN mutant cells.
These ratios were calculated and used as indicators for the sensitivity to mutant FLCN cells.

Data set [4] has as its system UOK257-FLCN^+ cells. As to the kind of experiment: SRB growth inhibition assay in UOK257-FLCN^+ cells. Format: cell-based, human. The source says: (§2) Human renal carcinoma of BHD origin cells UOK-257 (UOK-FLCN^−) and FLCN transfected UOK-257 cells UOK-FLCN^+ (Yang et al Cancer Genet Cytogenet. 2008 Jan. 15; 180(2):100-9) were provided by Dr Marston Linehan and Dr. Laura S Schmidt (Urologic Oncology Branch, Centre for Cancer Research, National Cancer Institute, National Institutes of Health, Bethesda, Md. 20892, USA). UOK-257 is the only RCC cell line that has been derived from a patient with BHD and harbours a germline FLCN frameshift mutation (c.1285dupC) (predicted, in the absence of nonsense mediated mRNA decay, to lead to premature protein truncation (p.His429ProfsX27) (Yang et al., Cancer Genet Cytogenet, 2008 Jan. 15; 180(2):100-9). We are not aware of any sporadic RCC cell lines with homozygous FLCN inactivation. FTC-133 cells were purchased from ECACC (Salisbury, United Kingdom). These cells are a non-RCC cell line derived from human thyroid carcinoma. 786-0 cells were available from the author's lab (Clifford et al., Hum Mol Genet. 2001 May 1; 10(10):1029-38). 786-O is a kidney cancer cell line that harbours an inactivating VHL gene mutation (c.311delG p.G104fs*55). All cell lines were cultured in DMEM with supplement of 10% foetal bovine serum except for FTC-133 cells which were incubated in medium with DMEM and Hens (1:1).
The sensitivity of the cell lines to drug-induced cell growth inhibition was determined using the sulphorhodamine B assay (SRB) as described by Lu et al., Clin Cancer Res. 2001:7:2114-23. Briefly, adherent exponentially growing cells were seeded into 96-well plates at 3-5×10^3 cells/100 μl/well. After 20-24 h at 37° C., drugs were added at the appropriate drug concentrations to the wells (final DMSO conc. 1%) as indicated in the Results section. […] The absorbance per well was measured at 570 nm on a Victor X3 Multilabel Plate Reader (PerkinElmor, Beaconsfield, United Kingdom).
UOK-257 is the only RCC cell line that has been derived from a patient with BHD and harbours a germline FLCN frameshift mutation (c.1285dupC) (predicted, in the absence of nonsense mediated mRNA decay, to lead to premature protein truncation (p.His429ProfsX27) (Yang et al Cancer Genet Cytogenet, 2008 Jan. 15; 180(2):100-9). Both UOK257-FLCN^− and UOK257-FLCN^+ cells were examined for their sensitivities to growth inhibition induced by 15 compounds selected from the COMPARE analysis. Various concentrations of compounds were introduced into the cells 24 hrs after seeding, incubation was continued for 72 hours and growth inhibition was assessed using the suiphorhodamine B (SRB) assay. GI50 values, defined as the concentration of compounds required to inhibit growth by 50%, were then calculated. The ratio of GI50 value from UOK257-FLCN^+ and UOK257-FLCN^− were calculated and used as an indicator for the sensitivity to FLCN mutant cells.

In data set [5] the test system is 786-O cells expressing wt VHL. The experiment in a line: SRB growth inhibition in 786-O cells expressing wt VHL. Format: cell-based. As to conditions: Homo sapiens, 786-0; SRB assay, 72 hours.
Text: as §2, with “786-O is a kidney cancer cell line that harbours an inactivating VHL gene mutation (c.311delG p.G104fs*55). All cell lines were cultured in DMEM with supplement of 10% foetal bovine serum except for FTC-133 cells which were incubated in medium with DMEM and Hens (1:1).” left out
(§3) The sensitivity of the cell lines to drug-induced cell growth inhibition was determined using the sulphorhodamine B assay (SRB) as described by Lu et al., Clin Cancer Res. 2001:7:2114-23. […] The absorbance per well was measured at 570 nm on a Victor X3 Multilabel Plate Reader (PerkinElmor, Beaconsfield, United Kingdom). […]

Data set [6] has as its system FTC-133 cells with FLCN expressed at high levels. The experiment in a line: SRB growth inhibition in FTC-133 cells, high FLCN expression. Format: cell-based. As to conditions: Homo sapiens, SRB assay.
Text: as §2, with “786-O is a kidney cancer cell line that harbours an inactivating VHL gene mutation (c.311delG p.G104fs*55). All cell lines were cultured in DMEM with supplement of 10% foetal bovine serum except for FTC-133 cells which were incubated in medium with DMEM and Hens (1:1).” left out
as §3
In general terms: The SRB assay estimates cell density from bound dye.

“Also recorded” adds a separate entry of the source. Like-named read-outs stand apart in the source and are kept apart here.

Regarding `CO[C@H](C(=O)[C@@H](O)[C@@H](C)O)C1Cc2cc3cc(OC4CC(OC5CC(O)C(O)C(C)O5)C(O)C(C)O4)c(C)c(O)c3c(O)c2C(=O)[C@H]1OC1CC(OC2CC(OC3CC(C)(O)C(O)C(C)O3)C(O)C(C)O2)C(O)C(C)O1` (stereo partly drawn) [mithramycin, Mithramycin], the “fold more cytotoxic to FLCN-null than FLCN-wild type UOK257 cells (clonogenic survival)” value in data set [1] (200 nM where stated) is on record as roughly 10 fold. Also, in data set [1] (200 nM, 72 hrs exposure), the “viable cells (clonogenic survival), UOK-257 cells without FLCN expression” value is “less than 8%”. Also, the “cells survived (clonogenic), UOK257-FLCN^− cells” value in data set [1] (500 nM, 72 hrs exposure) is listed as “less than 0.1%”. Further, in data set [2], the “ratio of cell viability from UOK257-FLCN^+ and UOK257-FLCN^− (cell death)” value amounted to 2 fold. In addition, the “induction of caspase 3/7 activity, FLCN-null versus FLCN-wild type cells (in words)” value in data set [3] is on record as “preferentially induced caspase 3/7 activity in UOK257 FLCN-null cells in a dose dependent manner; also recorded: Differential ability to induce caspase 3/7 activity”; in data set [3] (listed as Mithramycin), “preferentially induces caspase 3/7 activity in FLCN-null cells in a dose dependent manner”. Further, the GI50 was determined as 634 ± 148 nM in data set [4] (72 hours continuous exposure, mean ± SE (n), read-out: GI50 nM in UOK-FLCN^+); 634 ± 148 nM in data set [4] (Homo sapiens, 72 h, 72 hours continuous exposure, mean ± SE (n), read-out: GI50 nM in UOK-FLCN^+); 634 ± 148 nM in data set [4] (Homo sapiens, read-out: GI50 in FLCN-wt UOK257 cells); 299 ± 17 nM in data set [5]; 35.3 ± 7.3 nM in data set [6]; 35.3 ± 7.3 nM in data set [6] (72 hours).

By GI50 is commonly meant the concentration that inhibits growth by half.
